Biological target: T1, VEGFR2 (Homo sapiens, UniProt P35968)
T1 construct: gene KDR
Assay: kinase enzyme assay (Reaction Biology), 10-point dose response, […] ATP
Assay type: biochemical

T1 sequence (P35968 20-1356): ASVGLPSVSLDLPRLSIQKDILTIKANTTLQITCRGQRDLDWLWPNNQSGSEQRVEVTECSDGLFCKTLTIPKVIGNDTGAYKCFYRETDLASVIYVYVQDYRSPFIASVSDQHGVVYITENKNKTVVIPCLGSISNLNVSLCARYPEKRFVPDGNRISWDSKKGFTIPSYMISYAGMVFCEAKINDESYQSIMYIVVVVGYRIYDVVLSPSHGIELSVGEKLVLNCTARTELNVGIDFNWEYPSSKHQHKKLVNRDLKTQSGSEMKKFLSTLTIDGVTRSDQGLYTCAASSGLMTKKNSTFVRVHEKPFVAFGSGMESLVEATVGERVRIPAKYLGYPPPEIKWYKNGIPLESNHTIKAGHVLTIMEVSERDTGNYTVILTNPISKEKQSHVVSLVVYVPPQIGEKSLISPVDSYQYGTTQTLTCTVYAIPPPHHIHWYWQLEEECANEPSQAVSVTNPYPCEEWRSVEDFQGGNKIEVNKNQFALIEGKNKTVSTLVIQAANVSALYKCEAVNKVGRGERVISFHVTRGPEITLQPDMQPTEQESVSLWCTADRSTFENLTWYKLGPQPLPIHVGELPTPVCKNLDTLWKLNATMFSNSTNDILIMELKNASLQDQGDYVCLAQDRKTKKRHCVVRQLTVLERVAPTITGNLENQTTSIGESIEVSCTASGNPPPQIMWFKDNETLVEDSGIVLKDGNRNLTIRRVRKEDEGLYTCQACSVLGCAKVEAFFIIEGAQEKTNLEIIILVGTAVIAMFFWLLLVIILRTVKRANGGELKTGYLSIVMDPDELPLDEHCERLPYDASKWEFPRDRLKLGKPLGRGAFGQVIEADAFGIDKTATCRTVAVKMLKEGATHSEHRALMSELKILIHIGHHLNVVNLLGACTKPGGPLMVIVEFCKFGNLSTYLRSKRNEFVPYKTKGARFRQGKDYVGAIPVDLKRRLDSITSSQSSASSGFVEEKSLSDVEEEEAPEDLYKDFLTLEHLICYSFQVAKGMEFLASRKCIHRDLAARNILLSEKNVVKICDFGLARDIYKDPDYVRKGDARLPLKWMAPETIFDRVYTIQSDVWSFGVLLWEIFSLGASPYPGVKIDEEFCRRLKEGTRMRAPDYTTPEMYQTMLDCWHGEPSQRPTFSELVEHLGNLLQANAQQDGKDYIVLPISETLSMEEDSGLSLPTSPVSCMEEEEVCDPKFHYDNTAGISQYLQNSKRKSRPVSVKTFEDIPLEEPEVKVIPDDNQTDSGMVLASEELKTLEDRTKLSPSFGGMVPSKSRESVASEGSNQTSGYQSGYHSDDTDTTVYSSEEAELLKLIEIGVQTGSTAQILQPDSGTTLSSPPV

## Cc1cccc(-c2nc3n(c2-c2ccc4ncnn4c2)CCN3)n1 [TU2218]
  IC50: 4.9 nM
